{"source": "patent US20100204149A1", "about": "“USE OF OCTREOTIDE AS A THERAPEUTIC AGENT” (priority 2007, published 2010)", "key": {"Pseudomonas aeruginosa": {"test_system": "Pseudomonas aeruginosa", "assay": "Pseudomonas aeruginosa assay", "type": "cell-based", "conditions": "peptide 10 micrograms per ml, read visually", "procedure": "The antibacterial assay was conducted using clear, U-bottom 96-well microtiter plates. Cation-adjusted Mueller-Hinton Broth (MHB) was used for testing Pseudomonas aeruginosa. The peptide of the invention (0.1 ml of each—10 micrograms per ml—) was dispensed into wells in duplicate. Then the wells were inoculated with 5×10^5 CFU/mL Pseudomonas aeruginosa in 0.1 ml volume. For control purposes, each plate included 4 wells containing media without bacterial inoculum and 4 wells containing medium with inoculum but without peptide. The plates were incubated for 12 h at 37° C., and read visually 18-24 hours post-incubation. Growth control of Pseudomonas aeruginosa was examined first to determine adequacy of media preparations and growth conditions. Acceptable growth is defined as ≧2 mm wide button of cells at the bottom of each sample well, or obvious turbidity in the culture supernatant. Test wells were examined and scored as positive/negative for activity. A positive score for activity is based on complete inhibition of macroscopic growth of the test Pseudomonas aeruginosa."}, "Human A549 cells [1]": {"test_system": "Human A549 cells", "assay": "Propidium iodide cell cycle assay", "type": "cell-based", "conditions": "peptide 10 micrograms per ml, 24 hours", "excerpt": "Human A549 cells (carcinomic human alveolar basal epithelial cells) were utilized in the experiments employing the Propidium iodide cell cycle assay. The eukaryotic cell cycle is a series of events that take place in a cell leading to its replication. The regulation of the cell cycle involves steps crucial to the cell, including detecting and repairing genetic damage, and provision of various checks to prevent uncontrolled cell division. The molecular events that control the cell cycle are ordered and directional; that is, each process occurs in a sequential fashion. The cell cycle consists of four distinct phases: G1 phase, S phase, G2 phase (collectively known as interphase) and M phase. M phase is itself composed of two tightly coupled processes: mitosis, in which the cell's chromosomes are divided between the two daughter cells, and cytokinesis, in which the cell's cytoplasm divides forming distinct cells. Activation of each phase is dependent on the proper progression and completion of the previous one. Cells that have temporarily or reversibly stopped dividing are said to have entered a state of quiescence called Go phase. The relatively brief M phase consists of nuclear division and cytoplasmic division. The first phase within interphase, from the end of the previous M phase till the beginning of DNA synthesis is called G1 (G indicating gap or growth). During this phase the biosynthetic activities of the cell resume at a high rate. This phase is marked by synthesis of various enzymes that are required in S phase, mainly those needed for DNA replication. The ensuing S phase starts when DNA synthesis commences; when it is complete, all of the chromosomes have been replicated. The cell then enters the G2 phase, which lasts until the cell enters mitosis. Significant protein synthesis occurs during this phase, mainly involving the production of microtubules, which are required during the process of mitosis. […]\nPropidium iodide is an intercalating agent and a fluorescent molecule that can be used to stain DNA. […] After incubation for 40 min at 37° C., cells were analyzed in the FACS."}, "RAW 264.7 cells": {"test_system": "RAW 264.7 cells", "assay": "Phagocytosis assay with Fluorescein-labeled Escherichia coli", "type": "cell-based, mouse", "conditions": "peptide 10 micrograms per ml", "procedure": "RAW 264.7 (Mouse leukaemic monocyte macrophage cell line) cells were obtained from ATCC and grown in RPMI 1640 medium containing 10% FBS. Cells were incubated in 12×75 mm tubes at 37° C. with test peptide—10 micrograms per ml—for 30 min prior to adding Fluorescein-labeled Escherichia coli bacteria as the agent to be ingested. After the cells were incubated for additional 60 min at 37° C. and allowed to ingest the Fluorescein-labeled Escherichia coli bacteria, cells were fixed with 1% paraformaldehyde. The samples were then analyzed by flow cytometry to determine the amount of phagocytosis as a function of brightness (the greater the phagocytic activity, the more fluorescence in the macrophage population). Data are reported as % positive and the mean fluorescence intensity (MFI) of positively stained cells."}, "Human A549 cells [2]": {"test_system": "Human A549 cells", "assay": "Apoptosis induction assay (Annexin-5)", "type": "cell-based", "conditions": "peptide 10 micrograms per ml, 24 hours", "excerpt": "Human A549 cells (carcinomic human alveolar basal epithelial cells) were utilized in the experiments employing the Annexin-5 apoptosis assay. Annexin-5 is a member of a highly conserved protein family that binds acidic phospholipids in a calcium-dependent manner. […] Phosphatidylserine is translocated from the inner side of the plasma membrane to the outer layer when cells undergo death by apoptosis or cell necrosis and serves as a signal by which cell destined for death are recognized by phagocytes. Test peptide—10 micrograms per ml—were exposed for 24 hours to the A549 cells before they were analyzed for signs of apoptosis."}, "Human A549 cells [3]": {"test_system": "Human A549 cells", "assay": "Apoptosis prevention assay (C2 ceramide, Annexin-5)", "type": "cell-based", "conditions": "pretreated 30 min with peptide 10 micrograms per ml", "excerpt": "Human A549 cells (carcinomic human alveolar basal epithelial cells) were utilized in the experiments employing the Annexin-5 apoptosis assay. Annexin-5 is a member of a highly conserved protein family that binds acidic phospholipids in a calcium-dependent manner. […] Phosphatidylserine is translocated from the inner side of the plasma membrane to the outer layer when cells undergo death by apoptosis or cell necrosis and serves as a signal by which cell destined for death are recognized by phagocytes. A549 cells were pretreated for 30 min with test peptide -10 micrograms per ml—followed by the exposure to C2 ceramide. Ceramide mediates cell apoptosis through the activation of the mitogen activating protein kinase (MAPK) and the stress activated kinase (JNK/SAPK). C2 ceramide is a synthetic, membrane soluble analog of ceramide."}, "[4]": {"test_system": "macrophages from human PBMC", "assay": "TNF alpha production assay in LPS-stimulated macrophages", "type": "cell-based", "conditions": "TNF alpha ELISA; peptide 10 micrograms per ml; lipopolysaccharide 200 ng/ml; overnight", "procedure": "The macrophages were prepared by adherence of PBMC to the plastic wells of the plates. After 8 days in culture in the presence of recombinant human macrophage-colony stimulating factor at 2 ng/ml, differentiated macrophages were preincubated with test peptide—10 micrograms per ml—for 30 min, followed by in-well stimulation by the addition of lipopolysaccharide at a final concentration of 200 ng/ml. Not stimulated macrophages served as negative background control.\nAfter overnight incubation, supernatants from the control and LPS-stimulated cultures were harvested and assayed for TNF alpha production employing a TNF alpha specific ELISA."}, "[5]": {"test_system": "Human Peripheral Blood Mononuclear Cells (PBMC)", "conditions": "T cell proliferation; peptide 10 micrograms per ml; 3 days", "protocol": "Human Peripheral Blood Mononuclear Cells (PBMC) were obtained from normal human donors. The T cell proliferation was induced by stimulation of the cells with the T cell mitogen phytohemagglutinin (PHA), either in the absence (positive proliferation control), or in the presence of test peptide—10 micrograms per ml—to examine their effects on the T cell proliferating response. 10^5/well PBMC were plated in 96-well microtiter plates and assayed in duplicate with the peptide. Cell cultures were incubated at 37° C. for 3 days in a 5% CO2 incubator and were thereafter pulsed with 1 microCi/well ^3H-thymidine for additional 12 hours of culture. At the end of incubation time, the plates were harvested and the cells counted by liquid scintillation for the incorporation of ^3H-thymidine as a measure of T cell proliferation."}, "[6]": {"test_system": "Human Peripheral Blood Mononuclear Cells (PBMC)", "conditions": "B cell proliferation; peptide 10 micrograms per ml; 3 days", "protocol": "Human Peripheral Blood Mononuclear Cells (PBMC) were obtained from normal human donors. The B cell proliferation was induced by stimulation of the cells with the B cell mitogen Staphylococcus aureus Cowans I (SAC) plus Interleukin-2, either in the absence (positive proliferation control), or in the presence of test peptide—10 micrograms per ml—to examine their effects on the B cell response. 10^5/well PBMC were plated in 96-well microtiter plates and assayed in duplicate with the peptide. Cell cultures were incubated at 37° C. for 3 days in a 5% CO2 incubator and were thereafter pulsed with 1 microCi/well ^3H-thymidine for additional 12 hours of culture. At the end of incubation time, the plates were harvested and the cells counted by liquid scintillation for the incorporation of ^3H-thymidine as a measure of B cell proliferation."}, "HIV-1IIIB": {"test_system": "HIV-1IIIB", "assay": "HIV-1 antiviral assay (CPE reduction) in CEM-SS cells", "conditions": "peptide 10 micrograms per ml; 6 days post-infection; MTS"}}, "data": [{"smiles": "C[C@@H](O)[C@@H]1NC(=O)[C@H](CCCCN)NC(=O)[C@@H](Cc2c[nH]c3ccccc23)NC(=O)[C@H](Cc2ccccc2)NC(=O)[C@@H](NC(=O)[C@H](N)Cc2ccccc2)CSSC[C@@H](C(=O)N[C@H](CO)[C@@H](C)O)NC1=O", "note": "[Octreotide, H-D-Phe-Cys-Phe-D-Trp-Lys-Thr-Cys-L-threoninol]", "values": [{"measurement": "% inhibition", "setting": "Pseudomonas aeruginosa", "value": 0.0, "unit": "%"}, {"measurement": "Cell cycle analysis G0/G1", "setting": "Human A549 cells [1]", "value": 59.1}, {"measurement": "Cell cycle analysis G2/M", "setting": "Human A549 cells [1]", "value": 9.2}, {"measurement": "Cell cycle analysis S", "setting": "Human A549 cells [1]", "value": 31.8}, {"measurement": "% of control phagocytosis", "setting": "RAW 264.7 cells", "value": 105.9, "unit": "%"}, {"measurement": "% of induction", "setting": "Human A549 cells [2]", "value": 2.6, "unit": "%"}, {"measurement": "% prevention of ceramide induced apoptosis", "setting": "Human A549 cells [3]", "value": 0.0, "unit": "%"}, {"measurement": "% of LPS induction", "setting": "[4]", "value": 105.8, "unit": "%"}, {"measurement": "% of PHA induced control", "setting": "[5]", "value": 100.0, "unit": "%"}, {"measurement": "% of SAC/IL2 induced control", "setting": "[6]", "value": 115.3, "unit": "%"}, {"measurement": "% CPE reduction in HIV-1 infected CEM-SS cells", "setting": "HIV-1IIIB", "value": 0.0, "unit": "%"}]}]}
